Assay results taken from ChEMBL document CHEMBL1157164, “Computational analysis of the binding affinities of the natural-product cyclopentapeptides argifin and argadin to chitinase B from Serratia marcescens” (Bioorg Med Chem, 2008).

Key:
[1] = Inhibition of Lucilia cuprina chitinase B
Chitinase B = molecular target: T1, Chitinase B (Serratia marcescens, UniProt P11797); assay: Binding affinity to Serratia marcescens chitinase B
T1 sequence (P11797 whole entry): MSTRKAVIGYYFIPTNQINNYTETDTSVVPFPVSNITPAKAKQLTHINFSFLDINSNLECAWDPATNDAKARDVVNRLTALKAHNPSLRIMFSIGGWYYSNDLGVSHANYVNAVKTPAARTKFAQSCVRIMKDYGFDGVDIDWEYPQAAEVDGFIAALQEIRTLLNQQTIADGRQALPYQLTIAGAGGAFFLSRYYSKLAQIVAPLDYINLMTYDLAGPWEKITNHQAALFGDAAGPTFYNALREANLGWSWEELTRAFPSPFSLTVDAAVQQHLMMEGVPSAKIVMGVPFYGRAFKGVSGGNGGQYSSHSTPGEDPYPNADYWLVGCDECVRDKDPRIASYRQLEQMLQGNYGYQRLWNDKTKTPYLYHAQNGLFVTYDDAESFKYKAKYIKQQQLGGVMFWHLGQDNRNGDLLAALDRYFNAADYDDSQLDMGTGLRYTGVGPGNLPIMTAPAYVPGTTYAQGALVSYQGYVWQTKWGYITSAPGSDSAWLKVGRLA

CC(=O)NC(=N)NCCC[C@@H]1NC(=O)[C@H](CCCC(=O)O)NC(=O)[C@H](Cc2c[nH]cn2)N2C(=O)[C@H](C[C@H]2O)NC(=O)[C@H]2CCCN2C1=O [ARGADIN]
Ki [1]: 20 nM | IC50 (Chitinase B): 3.4 nM

CNC(=O)NC(=N)NCCC[C@@H]1NC(=O)[C@@H](C)NC(=O)C[C@@H](C(=O)O)NC(=O)C[C@@H](C(=O)O)NC(=O)[C@H](Cc2ccccc2)N(C)C1=O [ARGIFIN]
Ki [1]: 33000 nM | IC50 (Chitinase B): 100 nM
